Test results published in ChEMBL document CHEMBL1201862, “PubChem BioAssay data set” (2004).
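Results reflect a 48-hour exposure of cells in 96-well plates to compound at five concentrations. GI50 marks 50% less growth.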 Active and inactive are the calls of the source. No stated cut-off is given here; in the data, active = GI50 up to about 1.1 µM and inactive = higher.

Columns and labels:
Experiment in all cases: NCI anticancer screen, dose series, 48 h
DU-145 = tested on: DU-145
MOLT-4 = tested on: MOLT-4
A549 = tested on: A549
SK-OV-3 = tested on: SK-OV-3
K562 = tested on: K562
Hs-578T = tested on: Hs-578T
HT-29 = tested on: HT-29
SF-539 = tested on: SF-539
HCT-116 = tested on: HCT-116
MDA-N = tested on: MDA-N
U-251 = tested on: U-251
HCT-15 = tested on: HCT-15
NCI/ADR-RES = tested on: NCI/ADR-RES
MCF7 = tested on: MCF7
NCI-H226 = tested on: NCI-H226
KM12 = tested on: KM12
OVCAR-4 = tested on: OVCAR-4
SK-MEL-5 = tested on: SK-MEL-5
SR = tested on: SR

Measured: GI50

[O-][n+]1nc(N2CCOCC2)nc2ccccc21
> 100 µM: HCT-15
inactive: DU-145 > 100 µM | MOLT-4 > 100 µM | A549 > 100 µM | SK-OV-3 > 100 µM | K562 > 100 µM | Hs-578T > 100 µM | HT-29 > 100 µM | SF-539 > 100 µM | HCT-116 > 100 µM | MDA-N > 100 µM | U-251 > 100 µM | NCI/ADR-RES > 100 µM | MCF7 > 100 µM | NCI-H226 > 100 µM | KM12 > 100 µM

O=C(c1ccccc1)N1C(=O)N(c2ccccc2)C(=N/c2ccccc2)/C1=N\c1ccccc1
64 µM: HCT-15
inactive: DU-145 > 100 µM | MOLT-4 19.5 µM | A549 42.2 µM | SK-OV-3 > 100 µM | K562 7.36 µM | Hs-578T 20.3 µM | HT-29 33.7 µM | SF-539 > 100 µM | HCT-116 47.9 µM | MDA-N > 100 µM | U-251 > 100 µM | OVCAR-4 23.4 µM | NCI/ADR-RES > 100 µM | SK-MEL-5 > 100 µM | NCI-H226 18 µM | KM12 13.5 µM | SR 17.8 µM

C/C(N)=C/C(=O)c1[nH]c(C(=O)O)cc1C1CCN(Cc2ccccc2)C1=O (stereo not drawn)
inactive: DU-145 22.1 µM | MOLT-4 24.4 µM | A549 34.4 µM | SK-OV-3 28.6 µM | K562 20.8 µM | Hs-578T 27.9 µM | HT-29 31.8 µM | HCT-116 22.2 µM | MDA-N 23.7 µM | U-251 39.6 µM | OVCAR-4 47.8 µM | NCI/ADR-RES 19.9 µM | SK-MEL-5 15.3 µM | MCF7 24.2 µM | KM12 31.9 µM
29.9 µM: HCT-15

CC1OC(OC2C(O[C@H]3CC[C@@H]4C(=CC[C@@H]5[C@@]4(C)C(=O)C[C@]4(C)[C@@H]([C@H](C)CC[C@@H](O)C(C)(C)O)CC[C@@]54C)C3(C)C)OC(CO)C(O)C2O)C(O)C(O)C1O (stereo partly drawn)
inactive: DU-145 > 100 µM | MOLT-4 37.2 µM | A549 > 100 µM | SK-OV-3 > 100 µM | K562 49 µM | Hs-578T > 100 µM | HT-29 > 100 µM | SF-539 > 100 µM | HCT-116 > 100 µM | MDA-N > 100 µM | U-251 > 100 µM | OVCAR-4 > 100 µM | NCI/ADR-RES > 100 µM | SK-MEL-5 > 100 µM | MCF7 > 100 µM | NCI-H226 > 100 µM | KM12 > 100 µM
> 100 µM: HCT-15

COc1cc(CCCOC(=O)/C=C/c2ccc(O)c(O)c2)cc(O)c1O
91.8 µM: HCT-15
inactive: DU-145 > 100 µM | MOLT-4 27.5 µM | A549 69.2 µM | SK-OV-3 > 100 µM | K562 33.2 µM | Hs-578T 35.6 µM | HT-29 31.6 µM | SF-539 28.4 µM | HCT-116 17.7 µM | MDA-N 22.8 µM | U-251 36.8 µM | OVCAR-4 40 µM | SK-MEL-5 31.2 µM | MCF7 24.8 µM | NCI-H226 > 100 µM | KM12 44.2 µM | SR 43.6 µM

O=C1N[C@H](C(=O)O)[C@@H](c2ccc(OCc3ccccc3)cc2)O1
41.8 µM: HCT-15
inactive: DU-145 35.5 µM | MOLT-4 > 100 µM | A549 81.5 µM | SK-OV-3 44.1 µM | K562 > 100 µM | Hs-578T 27.5 µM | HT-29 > 100 µM | HCT-116 31.7 µM | MDA-N > 100 µM | U-251 27.9 µM | OVCAR-4 29.7 µM | NCI/ADR-RES 22.5 µM | SK-MEL-5 > 100 µM | MCF7 37.1 µM | NCI-H226 24.9 µM | KM12 > 100 µM

COc1cccc(C2c3cc4c(cc3OC(N3CCCCC3)C2C)OCO4)c1OC (stereo not drawn)
3.37 µM: HCT-15
inactive: DU-145 3.64 µM | MOLT-4 4.42 µM | A549 5.14 µM | SK-OV-3 12.4 µM | K562 3.63 µM | Hs-578T 4.31 µM | HT-29 4.58 µM | SF-539 12.6 µM | HCT-116 2.72 µM | MDA-N 11.2 µM | U-251 4.58 µM | SK-MEL-5 6.47 µM | MCF7 5.71 µM | NCI-H226 3.93 µM | KM12 6.32 µM | SR 1.24 µM

C=C1C(=O)C23CC1CCC2C12CO[C@H](O)[C@H]1C(C)(C)[C@H](OC(C)=O)C[C@H]2OC3=O (stereo partly drawn)
14.6 µM: HCT-15
inactive: DU-145 25.5 µM | MOLT-4 15.2 µM | A549 > 100 µM | SK-OV-3 > 100 µM | K562 5.9 µM | Hs-578T 34.4 µM | HT-29 13.4 µM | SF-539 20 µM | HCT-116 14.8 µM | MDA-N 16.1 µM | U-251 64.1 µM | OVCAR-4 > 100 µM | NCI/ADR-RES 28.1 µM | SK-MEL-5 30.8 µM | MCF7 15.8 µM | NCI-H226 > 100 µM | KM12 23 µM
